# Measured values: US20060264460A1 (Wyeth, priority 2005, published 2006)
# Target: T1, human Cot/Tpl2 kinase (Homo sapiens, UniProt P41279)
# T1 construct: human Cot/Tpl2 kinase construct encoding residues 30-398; 6His (N); made in house; host or cells: Sf9 insect cells, baculovirus system (BD Biosciences)
# Experiment: Tpl2/Cot kinase assay: GST-MEK1 phosphorylation detected by ELISA (DELFIA Eu)
# Format: biochemical
# Details: 0.4 nM Tpl2, 35 nM GST-MEK1, 50 uM ATP, 1 h at 30° C.
# Procedure: Sf9 cells expressing the kinase were lysed in 50 mM NaPhosphate pH=8; 300 mM NaCl; 5 mM imidazole; 0.1 mM EGTA; 25 mM beta-glycerophosphate; 1% TX-100, 1% glycerol; 6 mM beta-mercaptoethanol and protease inhibitors. The lysate was clarified by centrifugation and was loaded onto a Ni-Sepharose column. The column was washed with 50 mM NaPhosphate pH=8; 300 mM NaCl; 15 mM imidazole; 1% glycerol; and 6 mM beta-mercaptoethanol. His-Tpl2 was eluted with 50 mM NaPhosphate pH=8; 300 mM NaCl; 250 mM imidazole; 1% glycerol; and 6 mM beta-mercaptoethanol. The eluted protein was further purified by size exclusion chromatography. Fractions corresponding to monomeric Tpl2 were then used in the assay.
# Tpl2/Cot activity was directly assayed using GST-MEK1 as a substrate. GST-MEK1 phosphorylation on serine residues 217 and 221 was detected by ELISA. 0.4 nM Tpl2 was incubated with 35 nM GST-MEK1 in a kinase reaction buffer containing 20 mM MOPS pH=7.2; 50 uM ATP; 20 mM MgCl2; 1 mM DTT; 25 mM β-glycerophosphate; 5 mM EGTA; and 1 mM sodium orthovanadate for 1 h at 30° C. The compounds of the inventions solubilized in 100% DMSO were pre-diluted in assay buffer so that the final concentration of DMSO in the reaction was 1%. The kinase reaction was carried out in 100 ul volume on 96 well plates. The kinase reaction was then stopped with the addition of 100 mM EDTA. […] After a 1 hour incubation at room temperature, the detection plate was washed 4 times with TBST (TBS+0.05% Tween 20) and then incubated for another hour at room temperature with anti phospho-MEK1 antibody (Cell Signaling) 1:1000 in 10 mM MOPS 7.5; 150 mM NaCl; 0.05% Tween 20; 0.1% Gelatin; 0.02% NaN3; and 1% BSA. The detection plate was washed again and incubated for 30 min with DELFIA Europium (Eu) labeled goat anti-rabbit IgG (Perkin-Elmer), 1:4000 in the same buffer used for the primary incubation. After a final wash, Eu detection solution was added to each well and the Eu signal was measured in a Wallac Victor^2 Multilabel Counter. IC50 calculations were performed using the XLfit software package (IDBS, Guildford, UK).
# T1 sequence (P41279 30-398): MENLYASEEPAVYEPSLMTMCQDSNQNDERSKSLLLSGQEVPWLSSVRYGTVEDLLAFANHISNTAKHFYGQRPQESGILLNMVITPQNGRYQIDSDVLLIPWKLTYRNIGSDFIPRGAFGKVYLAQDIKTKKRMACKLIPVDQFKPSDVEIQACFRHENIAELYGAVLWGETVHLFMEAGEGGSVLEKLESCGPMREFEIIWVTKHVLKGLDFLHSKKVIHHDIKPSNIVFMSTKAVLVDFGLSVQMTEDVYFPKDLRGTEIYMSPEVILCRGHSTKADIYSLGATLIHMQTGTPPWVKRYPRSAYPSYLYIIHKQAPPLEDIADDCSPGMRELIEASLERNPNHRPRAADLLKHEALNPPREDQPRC
row,IC50 [nM],Structure (SMILES)
1,> 40000,"N#Cc1cnc2c(C(=O)NCc3ccccc3)cc(NCc3cccnc3)cc2c1Nc1cccc(Cl)c1 [Example 80, N-benzyl-4-(3-chlorophenylamino)-3-cyano-6-(pyridin-3-ylmethylamino)quinoline-8-carboxamide]"
2,4300,"N#Cc1cnc2ccc(NCC(N)=O)cc2c1Nc1ccc(F)c(Cl)c1 [Example 176, 2-(4-(3-chloro-4-fluorophenylamino)-3-cyanoquinolin-6-ylamino)acetamide]"
3,99,"N#Cc1cnc2ccc(NCc3nccn3CC(N)=O)cc2c1Nc1ccc(F)c(Cl)c1 [Example 139, 2-(2-((4-(3-chloro-4-fluorophenylamino)-3-cyanoquinolin-6-ylamino)methyl)-1H-imidazol-1-yl)acetamide]"
4,1500,"CC(C)(C)Nc1c(C#N)cnc2c(Br)cc(NCc3cnc[nH]3)cc12 [Example 98, 6-((1H-imidazol-5-yl)methylamino)-8-bromo-4-(tert-butylamino)quinoline-3-carbonitrile]"
5,3400,"CN(C)c1ccc(CNc2ccc3ncc(C#N)c(Nc4ccc(F)c(Cl)c4)c3c2)c(Br)c1 [Example 56, 6-(2-Bromo-4-dimethylamino-benzylamino)-4-(3-chloro-4-fluoro-phenylamino)-quinoline-3-carbonitrile]"
6,1300,"N#Cc1cnc2c(-c3ccoc3)cc(NCc3cccnc3)cc2c1Nc1ccc(F)c(Cl)c1 [Example 102, 4-(3-chloro-4-fluorophenylamino)-8-(furan-3-yl)-6-(pyridin-3-ylmethylamino)quinoline-3-carbonitrile]"
7,3.2,"Cc1c(CNc2ccc3ncc(C#N)c(Nc4ccc(F)c(Cl)c4)c3c2)ncn1C [Example 128, 4-(3-chloro-4-fluorophenylamino)-6-((1,5-dimethyl-1H-imidazol-4-yl)methylamino)quinoline-3-carbonitrile]"
8,70,"CS(=O)(=O)NCCNc1cc(Cl)c2ncc(C#N)c(Nc3ccc(F)c(Cl)c3)c2c1 [Example 326, N-[2-({8-chloro-4-[(3-chloro-4-fluorophenyl)amino]-3-cyanoquinolin-6-yl}amino)ethyl]methanesulfonamide]"
9,2120,"CC(C)(C)OC(=O)N1CCC(CNc2cc(Cl)c3ncc(C#N)c(Nc4ccc(F)c(Cl)c4)c3c2)CC1 [Example 322, tert-butyl 4-((8-chloro-4-(3-chloro-4-fluorophenylamino)-3-cyanoquinolin-6-ylamino)methyl)piperidine-1-carboxylate]"
10,420,"CN(C)C(=O)c1ccc2cc(CNc3ccc4ncc(C#N)c(Nc5ccc(F)c(Cl)c5)c4c3)n(C)c2c1 [Example 156, 2-((4-(3-chloro-4-fluorophenylamino)-3-cyanoquinolin-6-ylamino)methyl)-N,N,1-trimethyl-1H-indole-6-carboxamide]"
11,50,"CN1CCC[C@H]1CCn1cc(CNc2cc(Br)c3ncc(C#N)c(Nc4ccc(F)c(Cl)c4)c3c2)nn1 [Example 324, (S)-8-bromo-4-(3-chloro-4-fluorophenylamino)-6-((1-(2-(1-methylpyrrolidin-2-yl)ethyl)-1H-1,2,3-triazol-4-yl)methylamino)quinoline-3-carbonitrile]"
12,380,"COCCOc1ccc(CNc2ccc3ncc(C#N)c(Nc4ccc(F)c(Cl)c4)c3c2)cc1Br [Example 24, 6-[3-Bromo-4-(2-methoxy-ethoxy)-benzylamino]-4-(3-chloro-4-fluoro-phenylamino)-quinoline-3-carbonitrile]"

# Same assay, conditions: Table 2; Tpl2/Cot kinase, GST-MEK1 substrate, 50 uM ATP
row,IC50 [nM],Structure (SMILES)
1,2000,CN(C)CC#Cc1ncn(COCc2ccccc2)c1CNc1cc(Cl)c2ncc(C#N)c(Nc3ccc(F)c(Cl)c3)c2c1 [Example 460]
2,48,N#Cc1cnc2c(Cl)cc(NCC(=O)NCc3ccncc3)cc2c1Nc1ccc(F)c(Cl)c1 [Example 600]
3,> 3000,CN1CCCC1CCNC(=O)CNc1cc(Cl)c2ncc(C#N)c(Nc3ccc(F)c(Cl)c3)c2c1 (centres unmarked) [Example 612]
4,93,CN(C)CC(c1ccccc1)n1cc(CNc2cc(Br)c3ncc(C#N)c(Nc4ccc(F)c(Cl)c4)c3c2)nn1 (centres unmarked) [Example 575]
5,> 40000,Cn1nc(C(C)(C)C)cc1Nc1c(C#N)cnc2ccc(N)cc12 [Example 425]
6,33,CS(=O)(=O)Cn1cc(CNc2cc(Br)c3ncc(C#N)c(Nc4ccc(F)c(Cl)c4)c3c2)nn1 [Example 531]
7,6000,CN(C)C(=O)c1cc(N)cc2c(Nc3ccc(F)c(Cl)c3)c(C#N)cnc12 [Example 396]
8,120,Cc1cc(CNc2cc(Cl)c3ncc(C#N)c(Nc4ccc(F)c(Cl)c4)c3c2)n(C)n1 [Example 430]
9,3.2,Cn1ccnc1CNc1cc(Cl)c2ncc(C#N)c(Nc3ccc(F)c(Cl)c3)c2c1 [Example 426]
10,20,COCCn1cc(CNc2cc(Cl)c3ncc(C#N)c(Nc4ccc(F)c(Cl)c4)c3c2)nn1 [Example 562]
11,11500,CC(C)(C)Nc1c(C#N)cnc2ccc(NCc3cccc(C#N)c3)cc12 [Example 403]
12,3400,COC(=O)c1cnc(CNc2cc(Cl)c3ncc(C#N)c(Nc4ccc(F)c(Cl)c4)c3c2)n1C [Example 442]

# Same assay, conditions: Tpl2/Cot kinase, GST-MEK1 substrate, 50 uM ATP
row,IC50 [nM],Structure (SMILES)
1,> 3000,CN(C)CC1CCCCC1Nc1cc(Cl)c2ncc(C#N)c(Nc3ccc(F)c(Cl)c3)c2c1 (centres unmarked) [Example 646]
2,> 3000,COC(=O)c1cc(Cl)c2ncc(C#N)c(Nc3ccc(F)c(Cl)c3)c2c1 [Example 760]
3,18,COCCn1cc(CNc2cc(Br)c3ncc(C#N)c(Nc4ccc(F)c(Cl)c4)c3c2)nn1 [Example 698]
4,> 3000,CN1CCCC1CCNC(=O)CNc1cc(Cl)c2ncc(C#N)c(Nc3ccc(F)c(Cl)c3)c2c1 (centres unmarked) [Example 781]
5,> 3000,N#Cc1cnc2c(Cl)cc(NC3CCCC3Cl)cc2c1Nc1ccc(F)c(Cl)c1 (centres unmarked) [Example 782]
6,5.5,N#Cc1cnc2c(Br)cc(NCc3cn(-c4ccncc4)nn3)cc2c1Nc1ccc(F)c(Cl)c1 [Example 729]
7,4700,CC(=O)Nc1cc(Br)c2ncc(C#N)c(Nc3ccc(F)c(Cl)c3)c2c1 [Example 660]
8,5.9,N#Cc1cnc2c(Cl)cc(NCc3cn(CCOC(N)=O)nn3)cc2c1Nc1ccc(F)c(Cl)c1 [Example 784]
9,1240,N#Cc1cnc2c(Cl)cc(NCC3CCNCC3)cc2c1Nc1ccc(F)c(Cl)c1 [Example 824]
10,1200,CCN(C[C@@H]1CCCN1CC)c1cc(Cl)c2ncc(C#N)c(Nc3ccc(F)c(Cl)c3)c2c1 [Example 811]
11,44,CN1CCC(CCn2cc(CNc3cc(Br)c4ncc(C#N)c(Nc5ccc(F)c(Cl)c5)c4c3)nn2)CC1 [Example 695]
12,7,N#Cc1cnc2c(Cl)cc(NCc3cn(Cc4cccnc4)cn3)cc2c1Nc1ccc(F)c(Cl)c1 [Example 726]
13,610,CC(=O)N1CCCC(CNc2cc(Cl)c3ncc(C#N)c(Nc4ccc(F)c(Cl)c4)c3c2)C1 (centres unmarked) [Example 874]

# Same assay, conditions: Tpl2/Cot kinase, GST-MEK1 substrate, 50 uM ATP, 1 h at 30° C.; Table 2
row,IC50 [nM],Structure (SMILES)
1,31,CN(C)C(=O)N1CCN(CCn2cc(CNc3cc(Cl)c4ncc(C#N)c(Nc5ccc(F)c(Cl)c5)c4c3)nn2)CC1 [Example 961]
2,130,N#Cc1cnc2c(Cl)cc(NCc3cn(CCc4cccnc4)nn3)cc2c1Nc1ccc(F)c(Cl)c1 [Example 1020]
3,40,CNC1CCC(n2cc(CNc3cc(Cl)c4ncc(C#N)c(Nc5ccc(F)c(Cl)c5)c4c3)nn2)CC1 (centres unmarked) [Example 1036]
4,12,N#Cc1cnc2c(Cl)cc(NCc3cn(C4CCCN(C5CCC5)CC4)nn3)cc2c1Nc1ccc(F)c(Cl)c1 (centres unmarked) [Example 1030]
5,460,CN1CCCC1CCn1cc(CNc2ccc3ncc(C#N)c(NC4CCCCC4)c3c2)nn1 (centres unmarked) [Example 967]
6,130,N#Cc1cnc2c(Cl)cc(NCc3cn(CCc4cncc(C(O)(C(F)(F)F)C(F)(F)F)c4)nn3)cc2c1Nc1ccc(F)c(Cl)c1 [Example 1042]
7,> 3000,CC(C)(C)OC(=O)N1CCN(CCn2cc(CNc3cc(Cl)c4ncc(C#N)c(Nc5ccc(F)c(Cl)c5)c4c3)nn2)CC1 [Example 957]
8,23,CCNC(=O)N1CCN(CCn2cc(CNc3cc(Cl)c4ncc(C#N)c(Nc5ccc(F)c(Cl)c5)c4c3)nn2)CC1 [Example 962]
9,92,N#Cc1cnc2c(Cl)cc(NCc3cn(C4CCN(CC(F)F)CC4)nn3)cc2c1Nc1ccc(F)c(Cl)c1 [Example 1015]
10,420,CC(C)N1C2CCC1CC(n1cc(CNc3cc(Cl)c4ncc(C#N)c(Nc5ccc(F)c(Cl)c5)c4c3)nn1)C2 (centres unmarked) [Example 1049]
